Results as given in US7144731B2, “SCF antibody compositions and methods of using the same” (Amgen Inc., priority 1989, dated 2006).
“Also recorded” adds a separate entry of the source.

B1: SCF^1-130: E. coli human SCF analog, amino acids 1 to 130 (protein)
chain: EGICRNRVTNNVKDVTKLVANLPKDYMITLKYVPGMDVLPSHCWISEMVVQLSDSLTDLLDKFSNISEGLSNYSIIDKLVNIVDDLVECVKENSSKDLKKSFKSPEPRLFTPEEFFRIFNRSIDAFKDFV

Tests used:
Balb/c mice = assay: 5-FU experimental thrombocytopenia; format: in vivo, mouse
Description: Balb/c mice were either untreated or treated intravenously with 5-fluorouracil (150 mg/kg) on Day 0 (n=5). Blood analyses were performed on the indicated days as in legend to FIG. 53. Error bars are present, but not discernable, in some of the control points. […] After Day 12, platelet counts appeared to cycle from normal to high levels throughout the 40 day testing period. […] Two Balb/c mice per group were sacrificed at the indicated days. Cells from bone marrow (Panel A) or spleen (Panel B) were aliquoted at 100,000/well of a microtiter plate and stained for acetylcholinesterase according to published procedures, Long et al., Immature megakaryocytes in the mouse: Morphology and quantitation by acetlycholinesterase staining. Blood 58: 1032, 1981. Data points are the percentage of ACH+ cells per well for individual animals.
Platelet volumes also increase after 5-FU (FIG. 57). The data in this figure were generated from the same blood samples collected in FIG. 55. Mean Platelet Volume (MPV) is one of the parameters analyzed by the Sysmex Cell Analyzer.
The possibility of a relationship between SCF and the physiological regulator of platelet production induced in the 5-FU thrombocytopenic model was explored. 5-FU was given to normal mice and SCF mRNA expression levels quantitated in bone marrow cells collected on the days indicated in FIG. 58. In FIG. 58, one million cells were lysed in SDS buffer and the lysate was analyzed for the presence of mRNA specific for murine SCF. […] RNA sense strand standards for quantitation of the hybridization assays were produced by runoff transcription of the same region in the direction opposite to the direction of probe synthesis using tracer quantities of ^35S-UTP and 0.2 mM unlabeled UTP.
SCF or actin mRNA levels were quantitated as follows. […] After addition of 5 mls Liquiscint (New England Nuclear; Boston, Mass.) samples were counted 20 minutes or to 3% error. […]

UT-7 cells = assay: UT-7 ^3H-thymidine uptake assay; format: cell-based, human
Description: UT-7 cells are a human megakaryocyte, huGM-CSF responsive cell line obtained from John Adamson, New York Blood Center, New York, N.Y. UT-7 cells were cultured in Iscove's Modified Dulbecco's Medium, 10% FBS, 1× glutamine, 5 \g/ml huGM-CSF. Cells are passaged twice a week at 1×10^5 cells/ml.
Cells were washed twice in phosphate buffered saline (PBS) and resuspended in RPMI medium with 4% FBS and glutamine penicillin streptomycin (GPS) (Irvine Scientific Cat No. 9316 used at 1% volume per volume) at 4×10^4 cells/ml before use. Human SCF along with specific samples were added to 4000 cells/well in 96 well plates and were cultured for 72 hrs. 0.5 uCi/well of ^3H-Thymidine was then added to each plate, plates were harvested and counted 4 hours later.

[1] = target: T1, SCF receptor (OCIM1 plasma membrane) (Homo sapiens, UniProt P10721); assay: SCF radioreceptor assay; format: binding
T1 construct: endogenous in cells; host or cells: OCIM1 human erythroleukemic cells, plasma membrane preparation
Description: OCIM1 cells, [Papayannopoulou et al., Blood 72:1029–1038 (1988)] are a human erythroleukemic cell line expressing many human SCF receptors per cell. These cells are grown in Iscove's Modified Dulbecco's Medium, 10% FBS, and 1× glutamine and passaged 3 times a week to 1×10^5 cells/ml.
Preparation of the OCIM1 plasma membrane is as follows with all steps performed on ice.
First, 40 T175 flasks of cells were grown-up in OCIM1 culture medium, for a total of 1.9×10^9 […]. The conditioned medium and 1 mM Phenyl Methyl Sulfonyl Fluoride (PMSF) protease inhibitor, was spun down in 8×250 ml tubes at 1000 rpm for 10 minutes at 4° C. Cells were washed with PBS and repelleted in 4×50 ml centrifuge tubes at 1000 rpm for 10 minutes at 4° C. Cells were resuspended in 20 ml ice cold PBS with glucose sodium pyruvate (Gibco Cat #310-4287). The 20 ml cell solution was put into a pre-pressurized, pre-chilled (4° C.) “cell bomb” designed to lyse the cells. Cells were pressurized at 400–650 PSI for 10 minutes to establish equilibrium. When the pressure is released cell lysis occurs.
At this point the cells were checked for the percentage of cell lysis. 90% lysis was common. The cell suspension was resuspended in 80 mls sucrose buffer (0.25M sucrose, 10 mM Tris, 1 mM EDTA in double distilled (dd) H2O, filtered through a 0.45 u filter, pH 7.0) and divided between two 40 ml screwcap tubes. Tubes were spun at 5900 RPM for 10 minutes in a Beckman J2-21 centrifuge, JA-20 rotor at 4° C. The supernatants were saved and spun one more time as above to further remove any unwanted material. Supernatants were saved and distributed equally into 2 nalgene 40 ml centrifuge tubes. These supernatants were centrifuged at 16,000 RPM 4° C. for 30 min. in J2-21 centrifuge, JA-20 rotor. These supernatants were discarded being careful to save pellets. Each pellet was resuspended in sucrose buffer so there were 20 mls per tube in 4×36 ml plastic ultracentrifuge tubes. Using a 20 ml syringe and a large trochar, the solution was carefully underlayered in each tube with ice cold 36% sucrose solution (36.1 g sucrose/100 mls ddH2O), bringing the level of the liquid to within 2 mm of the top of the tube. Without disturbing the interface, each tube was carefully placed into each of […] titanium ultracentrifuge tubes. Tubes were centrifuged at 27,000 RPM, 4° C. for 75 minutes in an ultracentrifuge. These tubes were carefully removed from the rotor and from titanium buckets, placed in a rack with the 36% sucrose interface visible. The membraneous material at the interface was collected with a pasteur pipet and transfered into 2 clean nalgene 40 ml centrifuge tubes. Volume was brought up to 40 mls with ice cold sucrose buffer. Tubes were balanced and centrifuged as before at 5900 RPM in J2-21 centrifuge. […]

Molecule | megakaryocyte numbers (ACH+ cells) in bone marrow and spleen (Balb/c mice; 150 mg/kg i.v.) | platelet volumes (Balb/c mice; 150 mg/kg i.v.) | platelet counts, time course (Balb/c mice; 150 mg/kg i.v. on Day 0) | specific activity in the UT-7 assay (UT-7 cells) | specific activity in the radioreceptor assay [1]
O=c1[nH]cc(F)c(=O)[nH]1 [5-FU, 5-fluorouracil] | rise dramatically | increase | thrombocytopenic by Day 5; also recorded: rebound thrombocytosis |  | 
B1 |  |  |  | about 15 % of the value for SCF^1-164 | about 50 % of the value for SCF^1-164
